The values that follow come from PubChem BioAssay (NCI).

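Dose response: 5 concentrations. Exposure: 48 h. Format: 96-well plates. Endpoint: linear interpolation; highest concentration if not reached. Here, GI50 denotes the concentration required for 50% inhibition of growth. The concentration for full growth arrest is given as TGI.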 Activity calls are given as the source filed them. No stated cut-off is given here; in the data, active means GI50 below about 0.43 µM; inactive means the rest.

The test deals with MDA-MB-468 breast. Kind of test: NCI-60 cell line screen, 48 h.
`CCS(=O)(=O)Nc1ccc(Oc2ccc(F)cc2F)c(-c2cn(C)c(=O)c3[nH]ccc23)c1`: the GI50 was 0.0512 µM and the TGI was found to be 5.01 µM.

As to `COc1ccc(/C=C2\CN(Cc3cn(CCCNc4ccnc5cc(Cl)ccc45)nn3)C/C(=C\c3ccc(OC)cc3)C2=O)cc1`, the GI50 was 11.9 µM and the TGI was 26.2 µM.

With `CNCc1ccc(C)c(NC(=O)c2ccc(Nc3nc(-c4ccccc4)c4ccccc4n3)cc2)c1`, the GI50 was 1.61 µM and the TGI was 3.13 µM.

With `CC(CCC/C=C/CCCN(C)C(=N)N)CC(C)C1OC(=O)C(C)C(O)/C=C/C(C)C(O)C(C)C(O)C(C)C(O)CCCC(O)CC2(O)OC(CC(OC(=O)CC(=O)O)CC(O)CC(O)C(C)C(O)/C=C/C=C/C1C)CC(O)C2O` (stereo unspecified), the GI50 was 1.77 µM, the TGI was determined as 3.29 µM and the outcome was inactive.

For `CCC(CC)N1C(=O)/C(=c2\sc3n(c2=O)C2C(NN=3)N(CC)C(=O)N2CC)c2ccccc21` (stereo unspecified), the GI50 was 0.489 µM and the TGI was determined as 27 µM.

Consider `COc1ccc(/C(C)=C(\c2ccc(Cl)cc2)c2ccc(OCCN3CCCCC3)cc2)cc1F`, for which the GI50 was 2.49 µM and the TGI is 5.62 µM.

As to `COc1cc2c(cc1Nc1nc(Nc3ccsc3C(N)=O)c3cc[nH]c3n1)N(C(=O)CN(C)C)CCC2`, the GI50 was 0.0827 µM and the TGI was 0.947 µM.

As for `CC1SC(c2cccc(Oc3ccccc3)c2)N(CCc2cccs2)C1=O` (stereo unspecified), the GI50 is 0.745 µM and the TGI stood at 2.91 µM.

With `Cc1cccc(NC(=O)c2sc3nc4c(cc3c2N)CCC4)c1C`, the GI50 is 0.196 µM and the TGI is 0.685 µM.

On to `CCN(CC)CCCC(C)NC(=S)N/N=C(\C)c1ccccn1` (stereo unspecified), for which the GI50 was 1.89 µM and the TGI was determined as 5.65 µM.

Consider `O=C(/C=C/CN1CCCCC1)Nc1cc2c(Nc3ccc(F)c(Cl)c3F)ncnc2cc1OCCOC(F)F`, for which the GI50 is less than 0.01 µM and the TGI turned out to be 0.0118 µM.

`O=C1/C(=C/c2ccc([N+](=O)[O-])s2)Oc2ccc(Cl)cc21`: the GI50 is 0.44 µM and the TGI amounted to 1.56 µM.

On to `CCOC(=O)c1ccccc1NC(c1ccccc1)c1ccc2cccnc2c1O` (stereo unspecified), for which the GI50 was 2.45 µM and the TGI was 6.86 µM.

Consider `COc1c(C)cnc(Cn2cnc3c(Cl)nc(N)nc32)c1C`, for which the GI50 was 0.169 µM and the TGI worked out at 1.53 µM.

`CCOC(=O)C(Cc1ccc(N(CCCl)CCCl)cc1)NC(=O)C(CC(C)C)NC(C)=O` (stereo unspecified): the GI50 was 0.426 µM and the TGI amounted to 2.18 µM.

`Oc1c(Br)cc(Br)c2cccnc12`: the GI50 is 2.43 µM and the TGI is 7.53 µM.

With `CCN(CC)CCC(CNc1c2ccc(Cl)cc2nc2ccc(OC)cc12)c1ccccc1` (stereo unspecified), the GI50 is 1.57 µM and the TGI amounted to 3.01 µM.

Take `O=C(/C=C\c1ccc(Cl)c(Cl)c1)c1ccccc1`: the GI50 was 14.3 µM and the TGI was 36.9 µM.

`N#CC1=C(N)Oc2c(ccc3ccccc23)C1c1ccccc1Cl` (stereo unspecified): the GI50 was 0.466 µM and the TGI stood at 20.7 µM.

As to `Cc1nc2cc(NC(=O)CN3CCN(CCN4C(=O)c5cccc6cccc(c56)C4=O)CC3)ccc2s1`, the GI50 is 3.63 µM and the TGI came out at 16.6 µM.

As for `CCCCc1ccc(C(N)=O)nc1`, the GI50 was greater than 100 µM and the TGI is greater than 100 µM.

As to `Cc1nn(-c2ccccc2)c2ncc3c(c12)C(=O)N(Cc1ccccc1)C3=O`, the GI50 was 9.21 µM and the TGI was greater than 100 µM.

As to `COC(=O)[C@@H](C)C[C@H](Cc1ccccc1)NC(=O)c1cccc([C@@H](C[C@H](C(C)C)N(C)C(=O)[C@@H](NC(=O)[C@H]2CCCCN2C)C(C)C)OC(C)=O)n1`, the GI50 is less than 0.00167 µM and the TGI was found to be 0.143 µM.

Consider `COc1cc(C2C3=C(COC3=O)N(CCO)c3cc4c(cc32)CCC4)cc(OC)c1OC` (stereo unspecified), for which the GI50 is 0.0617 µM and the TGI came to 0.151 µM.

Turning to `CC(=O)OC1C(OC/C2=C/C3[C@@H](C(C)C)CC=C(C)[C@@H]3CC(OC(=O)/C=C/c3cn(C)cn3)[C@]3(C)C=C[C@@]2(O)O3)OCC(O)C1O` (stereo partly specified), the GI50 is 0.0108 µM and the TGI worked out at 0.0988 µM.

Consider `Cc1cc(N2CCOCC2)nc(N(CCNc2ccnc3cc(Cl)ccc23)Cc2cccs2)n1`, for which the GI50 is 2.11 µM and the TGI worked out at 5.08 µM.

On to `CCCCCCn1c(=N)n(CC(O)COc2cccc(C)c2)c2ccccc21` (stereo unspecified), for which the GI50 was 1.71 µM and the TGI is 3.54 µM.

Turning to `Cn1cnc2nc(Cl)nc(Cl)c21`, the GI50 was 3.68 µM and the TGI is 18.7 µM.

`Cn1c([N+](=O)[O-])cnc1/C=C1\Oc2ccc(Cl)cc2C1=O`: the GI50 was 1.92 µM and the TGI was found to be 4.79 µM.

With `COc1ccc(N2CCN(CC(=O)N3CCN(c4nnc(-c5ccc(Cl)cc5)c(-c5ccc(Cl)cc5)n4)CC3)CC2)cc1`, the GI50 was 11.5 µM and the TGI was 45.5 µM.

As for `COc1ccc(C2CC(c3ccc(OC)c(OC)c3)=NN2C(=O)c2cc(OC)c(OC)c(OC)c2)cc1` (stereo unspecified), the GI50 was 0.575 µM and the TGI was found to be 5.21 µM.

As for `CN1CCN(Cc2ccc(NC(=O)c3cncc(C#Cc4c(N)ncc5ccc(F)cc45)c3)cc2C(F)(F)F)CC1`, the GI50 is 4.19 µM and the TGI turned out to be 12.3 µM.

Regarding `Cn1cc(C2=C(c3cn(CCCSC(=N)N)c4ccccc34)C(=O)NC2=O)c2ccccc21`, the GI50 is 0.569 µM and the TGI is 1.9 µM.

As to `C=CC(=O)N1CC[C@@H](Oc2nc(Nc3ccc(N4CCC(N5CCN(C)CC5)CC4)cc3)c(C(N)=O)nc2CC)C1`, the GI50 was greater than 100 µM and the TGI was greater than 100 µM.

With `Cc1cc(F)cc(NS(=O)(=O)c2ccc(-c3cnc(C4CC4)o3)cc2)c1`, the GI50 is 0.079 µM and the TGI was found to be 2.42 µM.

For the compound `C#Cc1cccc(NC(=O)Nc2cccc(NC(=O)CCl)c2)c1`, the GI50 is 19.4 µM and the TGI turned out to be 78.7 µM.

In the case of `COc1ccc(C2CC(c3cccc(Nc4ccnc5cc(Cl)ccc45)c3)=NN2c2ccc(Cl)cc2)cc1` (stereo unspecified), the GI50 is 4.45 µM and the TGI came out at 40.3 µM.

Consider `Oc1ccc(-c2nc(-c3ccc4oc5ccc(-c6[nH]c(-c7ccc(O)cc7)nc6-c6ccccc6)cc5c4c3)c(-c3ccccc3)[nH]2)cc1`, for which the GI50 was 6.65 µM and the TGI stood at 88.5 µM.

Take `C=C1C(=O)O[C@H]2[C@H]1CC/C(Cn1cc(CNC(=O)c3cc4ccccc4[nH]3)nn1)=C\CC[C@@]1(C)O[C@@H]21`: the GI50 was 1.45 µM and the TGI was determined as 3.66 µM.

For the compound `CN(C)CCCn1c2c(c3ccncc3c1=O)C(=O)c1ccccc1-2`, the GI50 is 0.461 µM and the TGI was found to be 3.02 µM.
